The text below walks through data of US12622945B2, “Hard tissue therapeutics” (OrthoTrophix, Inc., priority 2020, dated 2026).

“Also recorded” adds a separate entry of the source. Where no end group is shown, it is not given here.

The subject of data set [1] is subjects with bilateral knee osteoarthritis. The data set is described as follows: Multicenter, randomized double-blind, placebo-controlled clinical study in bilateral knee osteoarthritis. The conditions noted are these: IA injections. It is filed as in vivo, human. The procedure:
No other doses of drug or placebo were administered.
MRI of both knees were obtained from these 93 subjects at baseline, 6 and/or 12 months. They were sent to the central readers of cartilage thickness and 3D bone shape, respectively. Both central readers were blinded to the treatment assignment and clinical data throughout their analysis process.
For the 3D bone shape analyses, its central reader first made a qualification review of all MRI images from the 93 subjects since they were obtained primarily for cartilage thickness measurement.
MRIs from the remaining 78 subjects (156 knees: 78 Index and 78 Control) were qualified for analysis of 3D shape of the knee joint bones (B-scores of femur, tibia, and patella).
If all clinical inclusion and exclusion criteria were met, MRIs of both knees were obtained and evaluated by a central reader to determine the ICRS grade (gICRS) of each knee as the final screening criterion. […]
Vital signs were also monitored after the injections.
Adverse events and concomitant medications were recorded.
All KOOS subscale scores, WOMAC Total score and subscale scores, MRI-based patello-femoral and tibiofemoral cartilage thickness, and MRI-based subchondral bone area and 3D bone shape were analyzed.
MRI images were provided to central readers for cartilage and subchondral bone measures, respectively. Central readers were blind as to treatment assignment. […]

For data set [2] the following is noted: in vivo.

For “TDLQERGDNDISPFSGDGQPFKD-NH2 (C-terminus assumed) [SEQ ID No: 10]”, in data set [1], the adverse events result was “no severe adverse events that were related to the peptide; also recorded: mild or moderate, transient”; the safety and tolerability result was “safe and well tolerated”. Further, the “biological effects on cell types, tissues, or organs other than hard tissues” value in data set [2] is “never demonstrated biological effects of the peptide on cell types, tissues, or organs other than cartilage, bone, and dentin”.
